These results are taken from US20200339548A1, “PYRIMIDINE DERIVATIVES AND THEIR USE FOR THE TREATMENT OF CANCER” (Adorx Therapeutics Limited, priority 2017, published 2020).

pKi: −log10 of the molar value.

The target of test [1] is T1, Adenosine A1 receptor (Homo sapiens, UniProt P30542).
T1 construct: expressed in transfected cells; host or cells: CHO cell membranes
T1 sequence (P30542 1-326): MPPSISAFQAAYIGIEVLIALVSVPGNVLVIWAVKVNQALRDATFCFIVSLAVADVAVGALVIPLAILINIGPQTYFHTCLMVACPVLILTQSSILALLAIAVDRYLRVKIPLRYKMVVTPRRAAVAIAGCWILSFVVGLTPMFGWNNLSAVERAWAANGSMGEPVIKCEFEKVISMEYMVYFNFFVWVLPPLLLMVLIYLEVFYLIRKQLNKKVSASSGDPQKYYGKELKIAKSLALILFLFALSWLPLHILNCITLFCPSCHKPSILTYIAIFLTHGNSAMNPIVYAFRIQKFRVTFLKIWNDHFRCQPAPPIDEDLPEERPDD
Briefly: Adenosine receptor TR-FRET binding assay, A1. To be noted: Table 9, further testing; displacement of 100 nM CA200645, CHO cell membranes. The procedure:
(§1) All FRET binding experiments were conducted at room temperature in white 384-well plates, in assay binding buffer containing 1× LabMed (Cisbio, France), 100 μg/mL saponin, 1% DMSO and 0.02% pluronic acid. Binding of the fluorescently labelled Adenosine receptor antagonist XAC (CA200645, FRET acceptor) to terbium-labelled A1, A2a, A2b and A3 adenosine receptors (FRET donors) was detected by time-resolved FRET due to the close proximity of the donor and acceptor in a binding event. To investigate the ability of unlabelled test compounds to bind to Adenosine A1, A2a, A2b and A3 receptors, dose response curves were constructed that determined the ability of a range of concentrations to inhibit the binding of 30 nM CA200645 to the A2b receptor and 100 nM CA200645 to the A1, A2a, and A3 receptor.
(§2) Serial dilution (1:3 dilutions) of test compounds in neat DMSO and transfer of a 400 nL sample of test compound into the assay plate was carried out using the Mosquito (TTP Labtech, UK). The compound samples were incubated for 2 hours at room temperature with a fixed concentration of CA200645 defined for each receptor (see above) and CHO cell membranes containing the human Adenosine A1 (0.5 μg/well), A2a (0.3 μg/well), A2b (1 μg/well) or A3 (1 μg/well) receptor in 40 μL of assay buffer. Total and non-specific binding of CA200645 was determined in the absence and presence of 10 μM XAC, respectively.
(§3) Following 2 hours incubation, the level of CA200645 binding was detected on a Pherastar FSX (BMG Labtech, Germany) using standard TR-FRET settings. The terbium donor was excited with three laser flashes at a wavelength of 337 nm, and donor and acceptor emission was detected at 620 nm and 665 nm wavelengths, respectively. FRET ratios were obtained by multiplying the acceptor/donor ratio value by 10,000. Specific binding was determined by subtracting the non-specific binding FRET ratio from the total binding FRET ratio. Compound IC50 curves were analysed using GraphPad Prism 7.0 (GraphPad, USA) and Ki affinity values were determined from the obtained […] values using the method of Cheng and Prusoff.
Background: TR-FRET usually uses a lanthanide donor and a delayed reading to cut background.

The target of test [2] is T2, Adenosine A3 receptor (Homo sapiens, UniProt P0DMS8).
T2 construct: expressed in transfected cells; host or cells: CHO cell membranes
T2 sequence (P0DMS8 1-318): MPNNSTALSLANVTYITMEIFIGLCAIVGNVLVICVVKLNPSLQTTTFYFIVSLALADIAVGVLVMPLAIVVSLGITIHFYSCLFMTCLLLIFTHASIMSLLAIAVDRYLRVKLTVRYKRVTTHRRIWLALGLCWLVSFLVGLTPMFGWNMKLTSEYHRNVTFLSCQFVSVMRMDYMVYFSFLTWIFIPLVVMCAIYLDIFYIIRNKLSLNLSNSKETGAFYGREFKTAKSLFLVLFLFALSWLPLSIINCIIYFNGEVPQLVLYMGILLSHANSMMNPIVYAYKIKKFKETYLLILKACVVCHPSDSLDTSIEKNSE
Description: Adenosine receptor TR-FRET binding assay, A3. The following applies: Table 9, further testing; displacement of 100 nM CA200645, CHO cell membranes; read-out: A3 Ki. The procedure: as §1, §2, §3

Test [3] addresses T3, Adenosine A2a receptor (Homo sapiens, UniProt P29274).
T3 construct: expressed in transfected cells; host or cells: CHO cell membranes
Briefly: Adenosine receptor TR-FRET binding assay, A2a. The following applies: displacement of 100 nM CA200645, CHO cell membranes. The procedure:
as §1, §2, §3

The target of test [4] is T4, Adenosine A2b receptor (Homo sapiens, UniProt P29275).
T4 construct: expressed in transfected cells; host or cells: CHO cell membranes
T4 sequence (P29275 1-332): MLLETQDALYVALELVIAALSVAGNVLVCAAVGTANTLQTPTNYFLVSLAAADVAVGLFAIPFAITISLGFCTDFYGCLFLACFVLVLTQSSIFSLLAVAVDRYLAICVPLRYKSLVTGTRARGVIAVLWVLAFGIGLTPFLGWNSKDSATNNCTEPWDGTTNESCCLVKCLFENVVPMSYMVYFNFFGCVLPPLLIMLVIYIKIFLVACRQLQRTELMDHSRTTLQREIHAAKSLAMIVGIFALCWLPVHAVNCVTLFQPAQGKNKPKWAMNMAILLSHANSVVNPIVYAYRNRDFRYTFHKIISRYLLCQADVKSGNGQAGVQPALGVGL
Briefly: Adenosine receptor TR-FRET binding assay, A2b. To be noted: Table 9, further testing; displacement of 30 nM CA200645, CHO cell membranes. On the procedure: as §1, §2, §3

T3 sequence (P29274 whole entry): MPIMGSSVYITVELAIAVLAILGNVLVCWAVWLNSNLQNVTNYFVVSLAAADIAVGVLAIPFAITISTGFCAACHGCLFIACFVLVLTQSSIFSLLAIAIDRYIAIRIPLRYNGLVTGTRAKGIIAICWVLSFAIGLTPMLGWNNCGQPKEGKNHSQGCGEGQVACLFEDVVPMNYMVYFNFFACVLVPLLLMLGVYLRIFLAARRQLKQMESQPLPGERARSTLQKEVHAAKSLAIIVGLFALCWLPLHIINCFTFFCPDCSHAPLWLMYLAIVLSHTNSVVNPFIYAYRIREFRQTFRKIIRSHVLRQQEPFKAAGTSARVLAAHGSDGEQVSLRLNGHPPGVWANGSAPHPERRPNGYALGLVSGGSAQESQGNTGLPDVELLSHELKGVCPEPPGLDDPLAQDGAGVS

With `Nc1nc(-c2ccco2)ncc1C(=O)NCc1cc(F)cc(F)c1` [Example 5.17, 4-Amino-N-[(3,5-difluorophenyl)methyl]-2-(2-furyl)pyrimidine-5-carboxamide], the pKi is 5.72 in test [1]; 5.52 in test [2]; 7.62 in test [3] (Table 8, Cheng and Prusoff); 7.62 in test [3] (Table 9, further testing).

Take `Nc1nc(-c2ccco2)ncc1C(=O)NCc1ccc(C(F)(F)F)cc1` [Example 5.28, 4-amino-2-(2-furyl)-N-[[4-(trifluoromethyl)phenyl]methyl]pyrimidine-5-carboxamide]: the pKi in test [1] was 5.25; in test [2] it was 5.24; in test [3] (Table 8, Cheng and Prusoff) it was 6.53; in test [3] (Table 9, further testing), 6.53.

Regarding `Cc1ccccc1CNC(=O)c1cnc(-c2cccc(F)c2)nc1N` [Example 5.10, 4-Amino-2-(3-fluorophenyl)-N-(o-tolylmethyl)pyrimidine-5-carboxamide], the pKi in test [4] was 5.00; in test [3] (Table 8, Cheng and Prusoff), 6.82; in test [3] (Table 9, further testing), 6.82.

Consider `Nc1nc(-c2ccco2)ncc1C(=O)NCc1ncccn1` [Example 5.58, 4-Amino-2-(2-furyl)-N-(pyrimidin-2-ylmethyl)pyrimidine-5-carboxamide], for which the negative logarithm of the Ki (pKi) in test [4] is 5.67; in test [3] (Table 9, further testing), 6.98.

In the case of `Cc1cccnc1C(C)NC(=O)c1cnc(-c2ccco2)nc1N` (stereo not shown) [Example 5.57, 4-Amino-2-(2-furyl)-N-[1-(3-methyl-2-pyridyl)ethyl]pyrimidine-5-carboxamide], the pKi is 5.35 in test [1]; 5.91 in test [2]; 7.40 in test [3] (Table 9, further testing).

Take `Nc1nc(-c2ccco2)ncc1C(=O)NCc1ccc2[nH]ccc2c1` [Example 5.41, 4-Amino-2-(2-furyl)-N-(1H-indol-5-ylmethyl) pyrimidine-5-carboxamide]: the pKi is 5.32 in test [1]; 5.96 in test [4]; 7.28 in test [3] (Table 9, further testing).

Take `Cc1cccnc1CNC(=O)c1c(N)nc(-c2cccc(C#N)c2)nc1OCCF` [Example 24.8, 4-Amino-2-(3-cyanophenyl)-6-(2-fluoroethoxy)-N-[(3-methyl-2-pyridyl)methyl]pyrimidine-5-carboxamide]: the pKi was 8.42 in test [1]; 7.55 in test [2]; 10.00 in test [3] (Table 9, further testing).

Consider `Nc1nc(-c2ccco2)ncc1C(=O)NCc1nccc(C(F)(F)F)n1` [Example 5.59, 4-Amino-2-(2-furyl)-N-[[4-(trifluoromethyl)pyrimidin-2-yl]methyl]pyrimidine-5-carboxamide], for which the pKi was 5.34 in test [2] and 6.63 in test [3] (Table 9, further testing).

For the molecule `Nc1nc(-c2ccco2)ncc1C(=O)N[C@H](CO)c1ccccc1` [Example 5.61, 4-Amino-2-(2-furyl)-N-[(1S)-2-hydroxy-1-phenyl-ethyl]pyrimidine-5-carboxamide], the pKi in test [1] was 5.39; in test [2], 5.83; in test [3] (Table 9, further testing), 7.27.

On to `Nc1nc(-c2cccc(F)c2)ncc1C(=O)NCc1ccccc1F` [Example 5.1, 4-Amino-2-(3-fluorophenyl)-N-[(2-fluorophenyl)methyl]pyrimidine-5-carboxamide], for which the negative logarithm of the Ki (pKi) in test [4] was 6.76; in test [3] (Table 8, Cheng and Prusoff) it was 7.05; in test [3] (Table 9, further testing), 7.05.

On to `COc1cccc(CNC(=O)c2cnc(-c3cccc(F)c3)nc2N)c1OC` [Example 10.10, 4-Amino-N-[(2,3-dimethoxyphenyl)methyl]-2-(3-fluorophenyl)pyrimidine-5-carboxamide], for which the pKi was 6.42 in test [4]; 7.02 in test [3] (Table 8, Cheng and Prusoff); 7.02 in test [3] (Table 9, further testing).

`Cn1ccnc1CNC(=O)c1cnc(-c2ccco2)nc1N` [Example 5.37, 4-Amino-2-(2-furyl)-N-[(1-methylimidazol-2-yl)methyl]pyrimidine-5-carboxamide]: the pKi in test [4] was 5.80; in test [3] (Table 9, further testing), 7.80.

As to `Nc1nc(-c2cccc(F)c2)ncc1C(=O)NCc1ncccc1C(F)(F)F` [Example 5.6, 4-Amino-2-(3-fluorophenyl)-N-[[3-(trifluoromethyl)-2-pyridyl]methyl]pyrimidine-5-carboxamide], the pKi is 6.21 in test [4]; 7.54 in test [3] (Table 8, Cheng and Prusoff); 7.54 in test [3] (Table 9, further testing).

For `CCOc1cccnc1CNC(=O)c1cnc(-c2cccc(F)c2)nc1N` [Example 5.8, 4-Amino-N-[(3-ethoxy-2-pyridyl)methyl]-2-(3-fluorophenyl)pyrimidine-5-carboxamide], the pKi in test [4] was 6.17; in test [3] (Table 8, Cheng and Prusoff), 7.68; in test [3] (Table 9, further testing), 7.68.

`Nc1nc(-c2ccco2)ncc1C(=O)NCc1cc2ccccc2cn1` [Example 5.36, 4-Amino-2-(2-furyl)-N-(3-isoquinolylmethyl) pyrimidine-5-carboxamide]: the pKi in test [1] was 5.57; in test [4], 6.01; in test [3] (Table 9, further testing) it was 7.85.

For `Nc1nc(-c2cccc(F)c2)ncc1C(=O)NCc1ccccn1` [Example 5.9, 4-Amino-2-(3-fluorophenyl)-N-(2-pyridylmethyl)pyrimidine-5-carboxamide], the negative-log Ki (pKi) in test [4] was 6.71; in test [3] (Table 8, Cheng and Prusoff), 7.12; in test [3] (Table 9, further testing), 7.12.

`Nc1nc(-c2cccc(F)c2)ncc1C(=O)NCCc1ccccc1` [Example 4.1, 4-Amino-2-(3-fluorophenyl)-N-(2-phenylethyl)pyrimidine-5-carboxamide]: the pKi is 5.76 in test [4]; 6.85 in test [3] (Table 8, Cheng and Prusoff); 6.85 in test [3] (Table 9, further testing).

Take `Nc1nc(-c2cccc(F)c2)ncc1C(=O)NCCc1ccc(O)cc1` [Example 5.7, 4-Amino-2-(3-fluorophenyl)-N-[2-(4-hydroxyphenyl)ethyl]pyrimidine-5-carboxamide]: the pKi in test [4] is 5.49; in test [3] (Table 8, Cheng and Prusoff) it was 6.30; in test [3] (Table 9, further testing) it was 6.30.

In the case of `CC(C)n1ccnc1CNC(=O)c1cnc(-c2ccco2)nc1N` [Example 5.33, 4-Amino-2-(2-furyl)-N-[(1-isopropylimidazol-2-yl)methyl]pyrimidine-5-carboxamide], the pKi in test [4] is 5.18; in test [3] (Table 9, further testing), 8.03.

As for `Nc1nc(-c2cccc(F)c2)ncc1C(=O)NCc1ccccc1` [Example 4, 4-Amino-N-benzyl-2-(3-fluorophenyl)pyrimidine-5-carboxamide], the pKi was 5.92 in test [4]; 7.13 in test [3] (Table 8, Cheng and Prusoff); 7.12 in test [3] (Table 9, further testing).

As for `COc1cccc(OC)c1CNC(=O)c1cnc(-c2ccco2)nc1N` [Example 5.31, 4-Amino-N-[(2,6-dimethoxyphenyl)methyl]-2-(2-furyl)pyrimidine-5-carboxamide], the pKi in test [1] is 5.82; in test [4] it was 5.37; in test [3] (Table 9, further testing) it was 8.92.

A word on the pKi: it is −log10 of the Ki, conventionally taken in molar units.
